Patent US20200123175A1, “NOVEL ISOTHIAZOLO-BASED BICYCLES, PROCESSES FOR THEIR PREPARATION AND THEIR USE AS HERBICIDES AND/OR PLANT GROWTH REGULATORS” (Bayer CropScience Aktiengesellschaft, priority 2017, published 2020)

Experiments:
[1] = tested on: AMARE; assay: Herbicidal action pre-emergence (PE); type: in vivo, Amaranthus retroflexus; conditions: dosage 320 g/ha
[2] = tested on: VIOTR; assay: Herbicidal action pre-emergence (PE); type: in vivo, Viola tricolor; conditions: dosage 320 g/ha
[3] = tested on: ALOMY; assay: Herbicidal action pre-emergence (PE); type: in vivo, Alopecurus myosuroides; conditions: dosage 320 g/ha
[4] = tested on: AMARE; assay: Herbicidal action post-emergence (PO); type: in vivo, Amaranthus retroflexus; conditions: dosage 320 g/ha
[5] = tested on: VIOTR; assay: Herbicidal action post-emergence (PO); type: in vivo, Viola tricolor; conditions: dosage 320 g/ha
[6] = tested on: ABUTH; assay: Herbicidal action post-emergence (PO); type: in vivo, Abutilon theophrasti; conditions: dosage 320 g/ha
[7] = tested on: ECHCG; assay: Herbicidal action pre-emergence (PE); type: in vivo, Echinochloa crus-galli; conditions: dosage 320 g/ha
[8] = tested on: SETVI; assay: Herbicidal action pre-emergence (PE); type: in vivo, Setaria viridis; conditions: dosage 320 g/ha
[9] = tested on: MATIN; assay: Herbicidal action pre-emergence (PE); type: in vivo, Matricaria inodora; conditions: dosage 320 g/ha
[10] = tested on: POLCO; assay: Herbicidal action pre-emergence (PE); type: in vivo, Polygonum convolvulus; conditions: dosage 320 g/ha
[11] = tested on: SETVI; assay: Herbicidal action post-emergence (PO); type: in vivo, Setaria viridis; conditions: dosage 320 g/ha
[12] = tested on: PHBPU; assay: Herbicidal action post-emergence (PO); type: in vivo, Pharbitis purpurea; conditions: dosage 320 g/ha
[13] = tested on: Pyrenophora teres; assay: In vivo preventive test on Pyrenophora teres (net blotch on barley); conditions: 100 ppm of active ingredient; barley plants; evaluated 14 days after the inoculation
Description: 5) Example: In Vivo Preventive Test on Pyrenophora teres (Net Blotch on Barley) [table] The active ingredients were made soluble and homogenized in a mixture of Dimethyl sulfoxide/Acetone//Tween® 80 and then diluted in water to the desired concentration. The young plants of barley were treated by spraying the active ingredient prepared as described above. Control plants were treated only with an aqueous solution of Acetone/Dimethyl sulfoxide/Tween® 80. After 24 hours, the plants were contaminated by spraying the leaves with an aqueous suspension of Pyrenophora teres spores.

[14] = tested on: Puccinia recondita; assay: In vivo preventive test on Puccinia recondita (brown rust on wheat); conditions: 100 ppm of active ingredient; wheat plants; evaluated 11 days after the inoculation
Description: 4) Example: In Vivo Preventive Test on Puccinia recondita (Brown Rust on Wheat) [table] The active ingredients were made soluble and homogenized in a mixture of Dimethyl sulfoxide/Acetone//Tween® 80 and then diluted in water to the desired concentration. The young plants of wheat were treated by spraying the active ingredient prepared as described above. Control plants were treated only with an aqueous solution of Acetone/Dimethyl sulfoxide/Tween® 80. After 24 hours, the plants were contaminated by spraying the leaves with an aqueous suspension of Puccinia recondita spores.

Row | SMILES | AMARE [1] | VIOTR [2] | ALOMY [3] | AMARE [4] | VIOTR [5] | ABUTH [6] | ECHCG [7] | SETVI [8] | MATIN [9] | POLCO [10] | SETVI [11] | PHBPU [12] | efficacy [13] | efficacy [14]
1 | O=C(Nc1nsc2c(=O)n(CC3CCCCC3)cnc12)c1cccnc1 [Example I-06] | 100 | 100 | 90 | 100 | 100 | 100 |  |  |  |  |  |  |  | 
2 | O=C(Nc1nsc2c(=O)n(CC3CCCCC3)cnc12)C(F)(F)C(F)(F)Cl [Example I-68] | 100 | 100 |  | 100 | 100 | 100 | 100 | 100 | 100 | 100 | 100 | 100 |  | 
3 | O=C(Nc1nsc2c(=O)n(CC3CCCCC3)cnc12)C(F)F [Example I-44] | 100 | 100 |  | 100 | 100 | 100 | 100 | 100 | 100 | 100 |  |  | at least 70% | 
4 | O=C(Nc1nsc2c(=O)n(Cc3ccc(F)cc3F)cnc12)C(F)(F)F [Example I-85] | 100 | 100 |  | 100 | 100 | 80 | 100 | 100 | 100 | 100 | 100 | 100 |  | 
5 | CCC(=O)Nc1nsc2c(=O)n(Cc3ccc(F)cc3F)cnc12 [Example I-84] | 100 | 100 |  | 100 | 100 | 100 | 100 | 100 | 100 | 100 | 100 | 100 |  | 
6 | O=C(Nc1nsc2c(=O)n(Cc3ccc(F)cc3F)cnc12)C(F)(F)C(F)(F)F [Example I-78] | 100 | 100 |  | 100 | 100 | 80 | 100 | 100 | 100 | 100 | 100 | 100 |  | 
7 | O=C(Nc1nsc2c(=O)n(CC3CCCCC3)cnc12)C(F)(F)F [Example I-53] | 100 | 100 |  | 100 | 100 | 100 | 100 | 100 | 100 | 100 | 100 | 100 |  | 
8 | COC(=O)C(=O)Nc1nsc2c(=O)n(CC3CCCCC3)cnc12 [Example I-70] | 100 | 100 | 100 | 100 | 100 | 80 |  |  |  |  | 100 | 100 |  | 
9 | COC(=O)CCC(=O)Nc1nsc2c(=O)n(CC3CCCCC3)cnc12 [Example I-72] | 100 | 100 |  | 100 | 90 | 100 | 100 | 100 | 100 | 100 | 90 | 100 |  | 
10 | COCC(=O)Nc1nsc2c(=O)n(CC3CCCCC3)cnc12 [Example I-69] | 100 | 100 |  | 100 | 100 | 90 | 100 | 100 | 100 | 100 | 100 | 100 |  | 
11 | O=C(Nc1nsc2c(=O)n(CC3CCCCC3)cnc12)c1ccc(Cl)cc1 [Example I-18] | 100 | 100 | 80 |  |  |  |  |  |  |  |  |  |  | 
12 | Nc1nsc2c(=O)n(CC3=CCCCC3)cnc12 [Example I-29] | 100 | 100 |  | 100 | 100 | 80 | 100 | 100 | 100 | 100 | 100 | 80 |  | 
13 | O=C(Nc1nsc2c(=O)n(CC3CCCCC3)cnc12)C1CC1 [Example I-07] | 100 | 100 | 100 | 100 | 100 | 80 |  |  |  |  | 100 | 100 |  | at least 70%
14 | Nc1nsc2c1NCN(CC1CCCCC1)C2=O [Example I-61] | 100 | 100 |  | 100 | 100 | 100 | 100 | 100 | 100 | 100 | 100 | 90 |  | 
15 | CC(=O)Nc1nsc2c(=O)n(Cc3ccc(F)cc3F)cnc12 [Example I-79] | 100 | 100 | 100 | 100 | 100 | 90 |  |  |  |  |  |  |  | 
16 | Nc1nsc2c1NCN(Cc1ccc(F)cc1F)C2=O [Example I-42] | 100 | 100 |  | 100 | 100 | 80 | 100 | 100 | 100 | 100 | 100 | 100 |  | 
17 | O=C(Nc1nsc2c(=O)n(CC3CCCCC3)cnc12)c1cc(Cl)cc(Cl)c1 [Example I-20] | 100 | 100 | 80 |  |  |  |  |  |  |  |  |  |  | 
